Test results from patent US12479847B2 (DANA-FARBER CANCER INSTITUTE, INC., priority 2019, dated 2025).

Columns and labels:
Assay in all cases: KINOMEscan (ScanMAX) kinase profiling
Format in all cases: binding
[1] = target: T1, panel of 468 kinases (Homo sapiens, UniProt Q13976); details: PRKG1; 1 μM; read-out: % control
T1 construct: purchased KINOMEscan (ScanMAX) service
T1 sequence (Q13976 1-671): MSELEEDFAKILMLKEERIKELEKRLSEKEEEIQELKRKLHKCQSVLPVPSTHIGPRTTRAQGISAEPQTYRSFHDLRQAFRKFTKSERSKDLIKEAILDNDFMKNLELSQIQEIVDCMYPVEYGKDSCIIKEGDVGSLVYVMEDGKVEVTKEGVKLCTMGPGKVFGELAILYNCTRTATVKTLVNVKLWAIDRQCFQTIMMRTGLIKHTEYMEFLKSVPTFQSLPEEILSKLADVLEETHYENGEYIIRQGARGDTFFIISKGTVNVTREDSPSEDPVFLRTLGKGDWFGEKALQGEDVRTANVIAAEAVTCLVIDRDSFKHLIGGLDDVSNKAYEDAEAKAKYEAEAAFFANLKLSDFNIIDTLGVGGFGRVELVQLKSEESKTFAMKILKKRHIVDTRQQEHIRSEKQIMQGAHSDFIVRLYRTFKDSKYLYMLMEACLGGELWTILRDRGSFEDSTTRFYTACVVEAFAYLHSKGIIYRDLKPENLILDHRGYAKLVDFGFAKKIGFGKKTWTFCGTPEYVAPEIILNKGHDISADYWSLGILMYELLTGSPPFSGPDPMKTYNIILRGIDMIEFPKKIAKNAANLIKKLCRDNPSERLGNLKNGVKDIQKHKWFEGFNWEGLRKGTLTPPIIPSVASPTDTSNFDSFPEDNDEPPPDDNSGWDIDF

[2] = target: T2, panel of 468 kinases (Homo sapiens, UniProt P37173); details: TGFBR2; 1 μM; read-out: % control
T2 construct: purchased KINOMEscan (ScanMAX) service

[3] = target: T3, panel of 468 kinases (Homo sapiens, UniProt O00444); details: PLK4; 1 μM; read-out: % control
T3 construct: purchased KINOMEscan (ScanMAX) service
T3 sequence (O00444 1-970): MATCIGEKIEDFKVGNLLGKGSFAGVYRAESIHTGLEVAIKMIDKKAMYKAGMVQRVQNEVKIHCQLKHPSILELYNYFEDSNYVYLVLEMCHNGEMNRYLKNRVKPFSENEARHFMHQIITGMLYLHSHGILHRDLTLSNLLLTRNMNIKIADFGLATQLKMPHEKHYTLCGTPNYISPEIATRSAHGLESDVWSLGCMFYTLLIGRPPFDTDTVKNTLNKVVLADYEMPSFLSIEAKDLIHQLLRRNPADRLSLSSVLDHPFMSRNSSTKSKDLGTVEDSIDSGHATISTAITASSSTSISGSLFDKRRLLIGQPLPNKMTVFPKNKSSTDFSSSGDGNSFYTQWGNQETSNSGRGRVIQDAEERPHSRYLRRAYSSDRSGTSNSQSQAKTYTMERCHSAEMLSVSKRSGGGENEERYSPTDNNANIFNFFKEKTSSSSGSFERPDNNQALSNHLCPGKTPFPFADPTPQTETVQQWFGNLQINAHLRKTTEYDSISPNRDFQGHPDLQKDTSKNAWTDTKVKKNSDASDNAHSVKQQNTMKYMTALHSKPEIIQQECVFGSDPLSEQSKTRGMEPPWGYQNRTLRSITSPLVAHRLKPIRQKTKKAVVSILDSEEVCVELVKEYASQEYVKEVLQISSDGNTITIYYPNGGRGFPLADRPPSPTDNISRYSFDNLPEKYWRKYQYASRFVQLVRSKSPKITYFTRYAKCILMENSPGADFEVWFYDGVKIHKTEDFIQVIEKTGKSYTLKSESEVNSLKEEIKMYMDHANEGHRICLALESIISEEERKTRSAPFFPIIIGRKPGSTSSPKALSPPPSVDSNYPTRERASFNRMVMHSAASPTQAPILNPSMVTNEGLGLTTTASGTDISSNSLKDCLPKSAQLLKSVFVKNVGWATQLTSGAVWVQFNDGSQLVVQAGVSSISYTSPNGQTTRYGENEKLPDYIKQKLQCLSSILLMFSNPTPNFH

[4] = target: T4, panel of 468 kinases (Homo sapiens, UniProt P20794); details: MAK; 1 μM; read-out: % control
T4 construct: purchased KINOMEscan (ScanMAX) service
T4 sequence (P20794 1-623): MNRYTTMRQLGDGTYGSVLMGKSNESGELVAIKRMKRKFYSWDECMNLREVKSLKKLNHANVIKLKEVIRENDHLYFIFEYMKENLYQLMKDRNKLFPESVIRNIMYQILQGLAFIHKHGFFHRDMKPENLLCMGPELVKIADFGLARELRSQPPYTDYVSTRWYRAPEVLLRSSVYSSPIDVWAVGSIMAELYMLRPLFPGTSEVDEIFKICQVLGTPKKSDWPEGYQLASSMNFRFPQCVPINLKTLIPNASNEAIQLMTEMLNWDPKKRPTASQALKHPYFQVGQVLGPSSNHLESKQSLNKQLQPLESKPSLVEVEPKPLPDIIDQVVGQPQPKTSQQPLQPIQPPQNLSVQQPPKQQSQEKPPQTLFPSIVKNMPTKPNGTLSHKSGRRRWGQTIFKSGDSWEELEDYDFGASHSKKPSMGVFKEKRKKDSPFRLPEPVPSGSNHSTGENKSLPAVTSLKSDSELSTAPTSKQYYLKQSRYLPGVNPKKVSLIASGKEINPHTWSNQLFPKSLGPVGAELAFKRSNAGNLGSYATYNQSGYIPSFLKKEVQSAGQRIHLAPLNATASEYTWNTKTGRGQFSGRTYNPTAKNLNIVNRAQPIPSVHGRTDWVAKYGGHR

T2 sequence (P37173 23-567): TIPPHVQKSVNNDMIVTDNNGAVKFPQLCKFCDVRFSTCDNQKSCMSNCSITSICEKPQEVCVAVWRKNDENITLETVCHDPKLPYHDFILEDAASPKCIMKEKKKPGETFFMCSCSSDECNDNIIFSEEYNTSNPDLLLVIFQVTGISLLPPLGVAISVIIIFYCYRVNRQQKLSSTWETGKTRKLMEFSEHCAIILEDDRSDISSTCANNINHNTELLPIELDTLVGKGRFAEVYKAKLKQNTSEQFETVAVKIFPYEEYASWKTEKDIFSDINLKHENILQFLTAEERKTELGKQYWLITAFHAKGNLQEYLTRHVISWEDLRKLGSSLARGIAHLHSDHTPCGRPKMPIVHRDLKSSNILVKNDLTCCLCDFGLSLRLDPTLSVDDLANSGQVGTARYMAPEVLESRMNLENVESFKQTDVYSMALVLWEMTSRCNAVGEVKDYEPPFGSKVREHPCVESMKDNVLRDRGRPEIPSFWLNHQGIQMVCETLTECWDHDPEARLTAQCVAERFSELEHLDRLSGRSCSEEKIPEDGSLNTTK

CNc1nc(Nc2ccc(S(=O)(=O)N3CCC(N4CCOCC4)CC3)cc2OC)nc2[nH]cc(Cl)c12 [Compound 12, 5-chloro-N2-(2-methoxy-4-((4-morpholinopiperidin-1-yl)sulfonyl)phenyl)-N4-methyl-7H-pyrrolo[2,3-d]pyrimidine-2,4-diamine]
remaining binding at 1 µM [1]: 100% | remaining binding at 1 µM [2]: 100% | remaining binding at 1 µM [3]: 22% | remaining binding at 1 µM [4]: 100%

CNc1nc(Nc2ccc(C(=O)N3CCC(N4CCOCC4)CC3)c3c2OCO3)nc2[nH]cc(Cl)c12 [Compound 75, (7-((5-chloro-4-(methylamino)-7H-pyrrolo[2,3-d]pyrimidin-2-yl)amino)benzo[d][1,3]dioxol-4-yl)(4-morpholinopiperidin-1-yl)methanone]
remaining binding at 1 µM [1]: 100% | remaining binding at 1 µM [2]: 100% | remaining binding at 1 µM [3]: 9.6% | remaining binding at 1 µM [4]: 100%

CNc1nc(Nc2ccc(P3(=O)CCN(C4CCOCC4)CC3)cc2OC)nc2[nH]cc(Cl)c12 [Compound 77, 4-(4-((5-chloro-4-(methylamino)-7H-pyrrolo[2,3-d]pyrimidin-2-yl)amino)-3-methoxyphenyl)-1-(tetrahydro-2H-pyran-4-yl)-1,4-azaphosphinane 4-oxide]
remaining binding at 1 µM [1]: 100% | remaining binding at 1 µM [2]: 100% | remaining binding at 1 µM [3]: 15% | remaining binding at 1 µM [4]: 100%
